{"source": "patent US20230089723A1", "about": "“AMINO ACID COMPOSITIONS AND METHODS FOR MUSCLE AND MYOTUBE MODULATION” (AXCELLA HEALTH INC., priority 2020, published 2023)", "key": {"[1]": {"tested_on": "cultured human myotubes (primary myoblasts W018)", "test": "In vitro model for muscle protein synthesis: Click-iT OPP incorporation in myotubes (modified MyoScreen)", "assay_type": "cell-based", "details": "myotubes in DMEM with 0.15× plasma amino acid profile, treated with amino acids at 1× human plasma concentration, 4 days; Click-iT signal in myotube mask", "protocol": "The ability of amino acids to influence protein synthesis in muscle cells was assessed using a modified version of MyoScreen (Cytoo SA, Grenoble Fr).\n(§1) Primary myoblasts (W018) were amplified and seeded into CYTOOplates on Day 0. After one day differentiation was started in DMEM/F12+GlutaMAX supplemented with 0.1% Horse Serum.\nProtein Synthesis after 4 Days by Fluorescence Microscopy\nAfter 4 days of culture, cells were washed twice with PBS 1× (Gibco), fixed with 4% Paraformaldehyde, and washed twice with PBS 1× (100 μL). Cells were then permeabilized by 0.5% Triton X-100 followed by three washes with PBS. After fixation, cells were immuno-stained for troponin to identify specific myotubes. […] In the Click-iT assay, 0-propargyl-puromycin (OPP) is efficiently incorporated into newly translated proteins in vivo for 30 minutes and then fluorescently labeled with Alexa Fluor® dye, which can be detected by high-content imaging (Molecular Devices). Click-iT signal was restricted to the myotube mask generated by the troponin co-stain. Data was collected as Click-iT mean intensity in myotubes (au). Images were acquired with Operetta HCS platform (Perkin Elmer) using a 10× objective in three fluorescent channels: nuclei, Troponin T, and Click-iT. Image processing and analysis were performed with a dedicated algorithm developed on Acapella high Content imaging Software (Perkin Elmer) at CYTOO. […]"}, "[2]": {"tested_on": "differentiating cultured human myotubes (primary myoblasts W018)", "test": "In vitro model for myogenesis: myotube fusion index (modified MyoScreen)", "assay_type": "cell-based", "details": "myotubes in DMEM with 0.15× plasma amino acid profile, treated with amino acids at 1× human plasma concentration, 4 days", "protocol": "as §1\nFusion Index Analysis after 4 Days by Fluorescence Microscopy\nImages were acquired with Operetta HCS platform (Perkin Elmer) using a 10× objective in two fluorescent channels: nuclei, Troponin T. Image processing and analysis were performed with a dedicated algorithm developed on Acapella high Content imaging Software (Perkin Elmer) at CYTOO. Nuclei within myotubes were counted under myotube mask generated by troponin co-stain and fusion index was calculated as the percentage of fused nuclei in myotube over total nuclei. Statistical analysis was done with T-Test relative to the untreated condition."}}, "data": [{"compound": "N[C@@H](CC(=O)O)C(=O)O", "note": "[D, Aspartic acid/Aspartate]", "values": [{"measurement": "Protein Synthesis median", "setting": "[1]", "value": 0.1078}, {"measurement": "Fusion Index median", "setting": "[2]", "value": 0.05657}]}]}
